Here are results for one compound from BindingDB's records for doi:10.1016/s0028-3908(97)00049-x (Roche Bioscience, 1997).

Among the targets are Substance-P receptor (Homo sapiens, UniProt P25103); Glutamate receptor 3 (Rattus norvegicus, UniProt P19492); Mu-type opioid receptor (Cavia porcellus, UniProt P97266).
The target of assay [1] is Kappa-type opioid receptor (Cavia porcellus, UniProt P41144).
The target in assay [2] is T1, 5-hydroxytryptamine receptor 1A (Rattus norvegicus, UniProt P19327).
T1 sequence (P19327 whole entry): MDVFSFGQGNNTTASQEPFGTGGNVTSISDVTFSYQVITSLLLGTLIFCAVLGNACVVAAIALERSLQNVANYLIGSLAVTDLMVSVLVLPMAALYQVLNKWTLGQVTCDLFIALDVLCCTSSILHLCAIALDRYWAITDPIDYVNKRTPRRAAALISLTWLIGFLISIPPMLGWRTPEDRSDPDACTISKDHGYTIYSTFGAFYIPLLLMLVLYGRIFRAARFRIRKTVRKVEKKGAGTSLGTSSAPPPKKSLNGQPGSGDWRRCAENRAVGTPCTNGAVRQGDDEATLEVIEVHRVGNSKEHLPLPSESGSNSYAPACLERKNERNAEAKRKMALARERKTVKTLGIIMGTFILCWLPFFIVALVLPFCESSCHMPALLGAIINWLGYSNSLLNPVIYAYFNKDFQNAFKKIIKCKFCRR

Assay [3] has as its target T2, Alpha-1B adrenergic receptor (Rattus norvegicus, UniProt P15823).
T2 sequence (P15823 whole entry): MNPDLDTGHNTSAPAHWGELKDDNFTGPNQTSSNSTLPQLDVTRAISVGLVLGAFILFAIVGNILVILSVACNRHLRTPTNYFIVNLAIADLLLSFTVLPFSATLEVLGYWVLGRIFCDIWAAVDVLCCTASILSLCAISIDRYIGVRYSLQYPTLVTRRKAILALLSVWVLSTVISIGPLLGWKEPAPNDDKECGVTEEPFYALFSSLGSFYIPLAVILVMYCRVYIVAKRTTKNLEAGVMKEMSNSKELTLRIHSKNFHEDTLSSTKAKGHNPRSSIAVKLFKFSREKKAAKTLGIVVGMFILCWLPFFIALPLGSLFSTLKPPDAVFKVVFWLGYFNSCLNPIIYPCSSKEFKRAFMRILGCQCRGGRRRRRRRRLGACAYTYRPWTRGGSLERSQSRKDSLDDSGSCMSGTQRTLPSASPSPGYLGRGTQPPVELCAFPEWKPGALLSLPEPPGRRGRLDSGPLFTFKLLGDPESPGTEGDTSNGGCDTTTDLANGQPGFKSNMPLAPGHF

The target in assay [4] is T3, 5-hydroxytryptamine receptor 3A (Mus musculus, UniProt P23979).
T3 sequence (P23979 whole entry): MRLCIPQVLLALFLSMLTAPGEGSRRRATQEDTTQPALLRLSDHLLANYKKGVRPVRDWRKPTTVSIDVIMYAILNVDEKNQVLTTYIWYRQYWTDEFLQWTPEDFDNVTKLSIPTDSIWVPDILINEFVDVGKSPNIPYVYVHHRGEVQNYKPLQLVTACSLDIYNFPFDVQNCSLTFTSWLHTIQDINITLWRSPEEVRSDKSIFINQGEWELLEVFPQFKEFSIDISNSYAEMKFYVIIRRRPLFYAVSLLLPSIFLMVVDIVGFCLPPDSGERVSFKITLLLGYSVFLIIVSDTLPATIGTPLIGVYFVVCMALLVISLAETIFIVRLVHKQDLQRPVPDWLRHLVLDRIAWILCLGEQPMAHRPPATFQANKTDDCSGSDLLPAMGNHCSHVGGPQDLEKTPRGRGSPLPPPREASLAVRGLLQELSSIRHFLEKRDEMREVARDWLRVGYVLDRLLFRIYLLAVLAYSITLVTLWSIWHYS

For assay [5], the target named is Gamma-aminobutyric acid receptor subunit alpha-1 (Rattus norvegicus, UniProt P62813).
Gamma-aminobutyric acid receptor subunit alpha-1, sequence (P62813 whole entry): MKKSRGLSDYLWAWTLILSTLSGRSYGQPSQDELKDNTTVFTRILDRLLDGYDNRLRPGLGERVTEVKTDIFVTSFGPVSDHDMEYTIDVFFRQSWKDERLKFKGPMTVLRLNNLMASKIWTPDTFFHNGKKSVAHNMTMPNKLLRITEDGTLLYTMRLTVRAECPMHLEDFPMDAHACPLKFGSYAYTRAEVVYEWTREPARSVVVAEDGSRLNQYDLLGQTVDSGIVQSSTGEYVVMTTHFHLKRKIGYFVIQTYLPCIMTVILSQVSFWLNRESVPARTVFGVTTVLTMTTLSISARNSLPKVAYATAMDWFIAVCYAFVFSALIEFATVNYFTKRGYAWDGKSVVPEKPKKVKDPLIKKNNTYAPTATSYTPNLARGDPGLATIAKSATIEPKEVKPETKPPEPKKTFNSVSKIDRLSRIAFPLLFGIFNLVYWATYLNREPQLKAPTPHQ
In assay [6] the target is 5-hydroxytryptamine receptor 7 (Cavia porcellus, UniProt P50407).
5-hydroxytryptamine receptor 7, sequence (P50407 whole entry): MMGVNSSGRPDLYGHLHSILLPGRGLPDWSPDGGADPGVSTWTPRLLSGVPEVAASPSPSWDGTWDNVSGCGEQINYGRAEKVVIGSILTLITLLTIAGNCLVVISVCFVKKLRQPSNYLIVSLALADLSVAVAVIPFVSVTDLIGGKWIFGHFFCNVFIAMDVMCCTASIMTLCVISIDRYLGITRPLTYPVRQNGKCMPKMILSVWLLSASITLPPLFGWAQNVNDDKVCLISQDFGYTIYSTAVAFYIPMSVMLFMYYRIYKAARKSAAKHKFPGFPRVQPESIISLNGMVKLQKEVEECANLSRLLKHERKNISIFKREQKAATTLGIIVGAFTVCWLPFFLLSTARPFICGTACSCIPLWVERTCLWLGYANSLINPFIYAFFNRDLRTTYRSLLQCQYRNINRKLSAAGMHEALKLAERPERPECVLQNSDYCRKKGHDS
Assay [7] addresses T4, Alpha-2A adrenergic receptor (Oryctolagus cuniculus, UniProt Q5ZQK3).
T4 sequence (Q5ZQK3 whole entry): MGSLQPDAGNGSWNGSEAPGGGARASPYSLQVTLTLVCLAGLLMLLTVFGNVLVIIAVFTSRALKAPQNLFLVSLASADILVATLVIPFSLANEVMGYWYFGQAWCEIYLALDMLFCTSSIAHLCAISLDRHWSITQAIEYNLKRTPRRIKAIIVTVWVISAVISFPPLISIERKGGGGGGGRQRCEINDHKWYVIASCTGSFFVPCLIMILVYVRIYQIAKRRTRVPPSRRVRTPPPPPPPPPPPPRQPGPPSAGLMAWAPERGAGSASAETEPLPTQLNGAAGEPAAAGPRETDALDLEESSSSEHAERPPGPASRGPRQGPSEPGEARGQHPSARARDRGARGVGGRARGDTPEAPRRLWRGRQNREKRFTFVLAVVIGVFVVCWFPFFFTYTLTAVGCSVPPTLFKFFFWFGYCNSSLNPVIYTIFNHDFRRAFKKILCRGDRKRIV

Assay [8] concerns the target T5, Alpha-2B adrenergic receptor (Rattus norvegicus, UniProt P19328).
T5 sequence (P19328 whole entry): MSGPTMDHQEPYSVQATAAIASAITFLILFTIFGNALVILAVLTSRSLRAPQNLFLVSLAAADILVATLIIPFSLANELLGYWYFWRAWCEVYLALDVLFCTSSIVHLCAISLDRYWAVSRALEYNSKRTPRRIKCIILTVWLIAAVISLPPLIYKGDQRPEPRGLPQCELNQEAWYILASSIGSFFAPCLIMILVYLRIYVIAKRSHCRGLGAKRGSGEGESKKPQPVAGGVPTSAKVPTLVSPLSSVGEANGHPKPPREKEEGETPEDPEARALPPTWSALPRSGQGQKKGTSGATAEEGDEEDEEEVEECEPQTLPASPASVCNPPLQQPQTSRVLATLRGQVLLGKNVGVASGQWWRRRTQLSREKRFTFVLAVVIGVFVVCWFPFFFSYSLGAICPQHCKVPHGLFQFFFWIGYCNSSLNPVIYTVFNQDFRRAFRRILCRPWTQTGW

Assay [9] addresses T6, Beta-1 adrenergic receptor (Oryctolagus cuniculus, UniProt A0A4Y6F0G0).
T6 sequence (A0A4Y6F0G0 whole entry): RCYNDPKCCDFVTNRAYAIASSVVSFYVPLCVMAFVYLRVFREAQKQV

For assay [10], the target named is T7, Muscarinic acetylcholine receptor M2 (Rattus norvegicus, UniProt P10980).
T7 sequence (P10980 whole entry): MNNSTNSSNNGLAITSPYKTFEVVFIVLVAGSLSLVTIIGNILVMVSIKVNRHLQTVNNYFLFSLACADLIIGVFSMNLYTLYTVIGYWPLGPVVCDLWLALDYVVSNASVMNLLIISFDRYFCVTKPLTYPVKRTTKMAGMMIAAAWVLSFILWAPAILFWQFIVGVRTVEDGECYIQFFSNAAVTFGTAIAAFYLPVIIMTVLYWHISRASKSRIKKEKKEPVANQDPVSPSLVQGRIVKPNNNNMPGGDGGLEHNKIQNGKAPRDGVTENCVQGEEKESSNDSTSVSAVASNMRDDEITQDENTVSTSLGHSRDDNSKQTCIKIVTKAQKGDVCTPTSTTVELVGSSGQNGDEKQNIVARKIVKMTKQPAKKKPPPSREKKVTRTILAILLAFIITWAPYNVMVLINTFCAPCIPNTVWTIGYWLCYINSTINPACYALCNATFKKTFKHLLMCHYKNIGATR

For assay [11], the target named is T8, Muscarinic acetylcholine receptor M1 (Rattus norvegicus, UniProt P08482).
T8 sequence (P08482 whole entry): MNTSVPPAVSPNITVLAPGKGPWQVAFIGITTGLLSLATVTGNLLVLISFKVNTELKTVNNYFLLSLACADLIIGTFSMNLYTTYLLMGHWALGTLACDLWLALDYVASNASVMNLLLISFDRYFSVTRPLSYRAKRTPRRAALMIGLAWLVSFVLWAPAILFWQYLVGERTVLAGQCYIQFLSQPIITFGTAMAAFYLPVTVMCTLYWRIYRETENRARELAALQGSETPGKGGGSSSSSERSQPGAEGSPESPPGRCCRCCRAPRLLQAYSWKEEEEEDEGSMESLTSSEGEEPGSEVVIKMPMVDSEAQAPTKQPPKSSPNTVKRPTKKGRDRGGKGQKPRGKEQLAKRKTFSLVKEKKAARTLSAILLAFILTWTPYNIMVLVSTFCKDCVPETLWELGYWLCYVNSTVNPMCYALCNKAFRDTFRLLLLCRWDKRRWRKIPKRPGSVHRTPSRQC

In assay [12] the target is Muscarinic acetylcholine receptor M3 (Rattus norvegicus, UniProt P08483).
Muscarinic acetylcholine receptor M3, sequence (P08483 whole entry): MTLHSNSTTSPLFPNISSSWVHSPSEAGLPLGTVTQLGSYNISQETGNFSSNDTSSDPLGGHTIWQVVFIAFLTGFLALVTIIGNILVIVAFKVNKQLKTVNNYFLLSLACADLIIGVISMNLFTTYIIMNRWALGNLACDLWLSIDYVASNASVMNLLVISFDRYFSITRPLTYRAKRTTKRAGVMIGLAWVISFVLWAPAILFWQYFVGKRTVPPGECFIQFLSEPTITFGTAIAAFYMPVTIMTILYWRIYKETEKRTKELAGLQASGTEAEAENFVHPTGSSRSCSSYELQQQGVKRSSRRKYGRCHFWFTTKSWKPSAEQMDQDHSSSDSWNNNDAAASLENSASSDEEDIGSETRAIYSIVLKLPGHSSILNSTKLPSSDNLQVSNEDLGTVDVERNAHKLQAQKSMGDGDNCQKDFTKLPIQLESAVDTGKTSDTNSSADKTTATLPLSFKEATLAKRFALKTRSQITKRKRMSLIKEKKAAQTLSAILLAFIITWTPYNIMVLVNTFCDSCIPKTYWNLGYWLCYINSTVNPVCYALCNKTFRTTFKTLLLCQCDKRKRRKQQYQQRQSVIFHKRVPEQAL
Assay [13] concerns the target Glutamate receptor ionotropic, NMDA 1 (Rattus norvegicus, UniProt P35439).
The target of assay [14] is Beta-2 adrenergic receptor (Rattus norvegicus, UniProt P10608).
Beta-2 adrenergic receptor, sequence (P10608 whole entry): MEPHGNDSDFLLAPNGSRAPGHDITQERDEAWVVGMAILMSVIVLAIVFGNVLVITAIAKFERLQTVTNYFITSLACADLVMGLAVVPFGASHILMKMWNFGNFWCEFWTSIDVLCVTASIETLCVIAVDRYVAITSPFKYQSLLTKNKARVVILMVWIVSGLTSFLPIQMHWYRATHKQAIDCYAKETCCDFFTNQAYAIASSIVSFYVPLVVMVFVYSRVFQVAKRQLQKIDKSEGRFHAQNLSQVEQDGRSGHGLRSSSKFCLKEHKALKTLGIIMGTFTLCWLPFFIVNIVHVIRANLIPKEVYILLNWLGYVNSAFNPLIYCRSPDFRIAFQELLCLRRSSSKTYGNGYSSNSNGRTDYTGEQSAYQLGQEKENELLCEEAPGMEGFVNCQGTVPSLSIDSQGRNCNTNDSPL

Molecules are shown by their SMILES. Bounds are passed on as bounds.

The term Ki denotes the dissociation constant of the complex between target and ligand, obtained from inhibition or displacement.

Glutamate receptor 3, sequence (P19492 whole entry): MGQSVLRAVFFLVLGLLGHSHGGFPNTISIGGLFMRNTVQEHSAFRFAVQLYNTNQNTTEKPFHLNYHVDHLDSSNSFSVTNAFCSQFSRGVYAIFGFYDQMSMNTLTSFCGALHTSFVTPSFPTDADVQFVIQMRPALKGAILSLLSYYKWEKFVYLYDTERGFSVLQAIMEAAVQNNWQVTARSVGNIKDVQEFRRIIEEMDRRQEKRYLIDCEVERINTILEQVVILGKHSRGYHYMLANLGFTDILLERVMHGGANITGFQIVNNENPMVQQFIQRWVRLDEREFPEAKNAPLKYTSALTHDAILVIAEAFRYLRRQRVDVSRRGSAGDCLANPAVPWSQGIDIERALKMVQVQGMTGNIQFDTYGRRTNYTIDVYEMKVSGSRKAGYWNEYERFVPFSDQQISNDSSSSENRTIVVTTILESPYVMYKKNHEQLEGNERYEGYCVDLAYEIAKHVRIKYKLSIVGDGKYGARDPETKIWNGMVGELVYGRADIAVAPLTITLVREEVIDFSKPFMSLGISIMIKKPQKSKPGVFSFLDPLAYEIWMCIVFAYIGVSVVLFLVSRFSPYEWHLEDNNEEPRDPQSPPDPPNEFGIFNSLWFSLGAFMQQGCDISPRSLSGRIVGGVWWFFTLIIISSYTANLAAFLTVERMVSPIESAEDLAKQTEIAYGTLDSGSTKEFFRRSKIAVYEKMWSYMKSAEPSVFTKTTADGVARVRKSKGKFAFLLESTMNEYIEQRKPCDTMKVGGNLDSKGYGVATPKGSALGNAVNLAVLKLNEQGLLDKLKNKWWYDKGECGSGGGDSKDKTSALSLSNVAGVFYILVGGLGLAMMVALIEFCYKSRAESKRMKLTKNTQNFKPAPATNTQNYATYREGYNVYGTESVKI
Substance-P receptor, sequence (P25103 whole entry): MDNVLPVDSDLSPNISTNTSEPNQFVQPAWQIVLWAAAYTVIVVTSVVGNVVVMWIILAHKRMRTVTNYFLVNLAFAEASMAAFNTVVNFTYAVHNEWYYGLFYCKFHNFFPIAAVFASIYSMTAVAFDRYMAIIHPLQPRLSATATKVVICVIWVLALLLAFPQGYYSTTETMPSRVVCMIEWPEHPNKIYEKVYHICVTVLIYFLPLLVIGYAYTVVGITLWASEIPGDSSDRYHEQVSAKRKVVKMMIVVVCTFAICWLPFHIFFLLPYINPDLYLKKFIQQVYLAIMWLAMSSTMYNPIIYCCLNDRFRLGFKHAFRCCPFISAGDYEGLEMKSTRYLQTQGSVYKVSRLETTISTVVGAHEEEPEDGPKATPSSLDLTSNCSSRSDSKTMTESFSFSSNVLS
Mu-type opioid receptor, sequence (P97266 whole entry): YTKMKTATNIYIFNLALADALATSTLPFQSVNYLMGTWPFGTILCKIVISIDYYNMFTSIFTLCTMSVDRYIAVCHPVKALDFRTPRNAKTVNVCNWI
Kappa-type opioid receptor, sequence (P41144 whole entry): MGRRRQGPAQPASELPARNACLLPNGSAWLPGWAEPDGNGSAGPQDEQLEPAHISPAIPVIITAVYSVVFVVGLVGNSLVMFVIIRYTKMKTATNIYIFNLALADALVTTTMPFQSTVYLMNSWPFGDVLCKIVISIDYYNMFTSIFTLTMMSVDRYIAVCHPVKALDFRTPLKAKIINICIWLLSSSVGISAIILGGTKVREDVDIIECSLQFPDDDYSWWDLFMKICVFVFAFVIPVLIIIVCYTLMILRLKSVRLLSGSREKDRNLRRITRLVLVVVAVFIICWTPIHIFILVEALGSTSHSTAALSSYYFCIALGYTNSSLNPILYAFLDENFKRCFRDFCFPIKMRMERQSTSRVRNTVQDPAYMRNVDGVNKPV

`COc1cc(OC)c(C(=O)CCCCN2CCC3(CC2)NC(=O)NC3=O)cc1NS(=O)(=O)c1ccc(C(F)(F)F)cc1` [N-[5-[5-(2,4-Dioxo-1,3,8-triazaspiro[4.5]decan-8-yl)-1-oxopentyl]-2,4-dimethoxyphenyl]-4-(trifluoromethyl)benzenesulfonamide]: the Ki (at Substance-P receptor; in assay [1]; in [2]; in [3]; in assay [4]; in assay [5]) was greater than 10 µM throughout. Besides, the Ki in assay [6] is greater than 10 µM; in assay [7] it was 0.316 µM; in assay [8] it was greater than 10 µM; in assay [9], greater than 10 µM; in assay [10], greater than 10 µM; in assay [11], greater than 10 µM. The Ki (in assay [12]; on Glutamate receptor 3; in assay [13]; at Mu-type opioid receptor; in [14]) was greater than 10 µM each time.
